Test results reported in patent publication US20150352108A1, “AMINO-PYRIMIDINE COMPOUNDS AS INHIBITORS OF TBK1 AND/OR IKK EPSILON” (Alzheimer's Institute of America, priority 2009, published 2015).

Key:
[1] = molecular target: T1, TBK1 (Homo sapiens, UniProt Q9UHD2); experiment: In-vitro TBK1 kinase assay ([γ33]ATP filter-plate); assay type: biochemical; conditions: text bins; read-out: IC50 for inhibition of the kinase activity of TBK1
T1 construct: His-tag; made in house; host or cells: Sf9 insect cells
T1 sequence (Q9UHD2 1-729): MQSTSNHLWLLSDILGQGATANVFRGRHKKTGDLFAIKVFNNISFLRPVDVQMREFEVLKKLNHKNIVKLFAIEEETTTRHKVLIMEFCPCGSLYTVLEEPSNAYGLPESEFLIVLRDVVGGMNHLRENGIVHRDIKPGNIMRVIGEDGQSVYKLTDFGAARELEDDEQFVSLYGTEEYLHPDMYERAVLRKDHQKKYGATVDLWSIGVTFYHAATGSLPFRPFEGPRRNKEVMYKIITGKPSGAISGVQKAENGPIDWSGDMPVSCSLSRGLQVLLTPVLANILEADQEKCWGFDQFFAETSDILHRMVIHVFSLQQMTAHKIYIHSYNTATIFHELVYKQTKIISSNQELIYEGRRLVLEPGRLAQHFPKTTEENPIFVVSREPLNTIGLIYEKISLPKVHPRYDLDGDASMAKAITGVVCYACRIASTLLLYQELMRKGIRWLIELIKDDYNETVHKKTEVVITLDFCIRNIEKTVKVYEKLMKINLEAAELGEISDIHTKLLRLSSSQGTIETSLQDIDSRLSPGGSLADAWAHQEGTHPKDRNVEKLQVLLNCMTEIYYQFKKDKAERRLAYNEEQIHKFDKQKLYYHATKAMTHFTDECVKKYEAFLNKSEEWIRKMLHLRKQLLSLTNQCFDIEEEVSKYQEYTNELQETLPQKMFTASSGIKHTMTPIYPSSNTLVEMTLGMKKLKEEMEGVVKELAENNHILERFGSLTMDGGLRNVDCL
How it was run: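 Phosphorylation of casein or myelin basic protein was counted by P-81 filter capture after 30-45 min reactions stopped with phosphoric acid, with counts normalized to DMSO after background subtraction. ATP was twice Km: 60 μM for TBK1 and 32 μM for IKKε, plus [γ33]ATP. Sf9-expressed His-tag enzymes were used at normal/sensitized levels of 0.1/0.02 μg/ml (TBK1) and 0.1/0.015 μg/ml (IKKε).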

[2] = test system: collagen-induced arthritis; experiment: Collagen-induced arthritis model in mice; assay type: in vivo; conditions: for day symptoms of arthritis appeared: days 18-34
Experimental: Male DBA/1 mice were injected with 150 μL of […] bovine type II collagen in Freund's complete adjuvant on days 0 and 21. On days 18 through 34, 100 mg/kg or 150 mg/kg Example Compound 5 was administered orally each day. Also on days 18 through 34, all mouse paws were given a clinical score on a scale of 0-5, based upon the severity of erythema and swelling. Body weights were measured every other day beginning on day 18. Mice were euthanized on day 34, livers were weighed and paws frozen in preparation for subsequent histopathology evaluation.

[3] = test system: BLyS mRNA, normal PBMCs; experiment: Agonist induced BLyS mRNA in PBMCs from healthy donors (qRT-PCR); assay type: cell-based, human; conditions: LMW poly(I:C), serial dilutions
From the text: To determine if inhibition of IKKε and/or TBK1 modulates nucleic acid agonist induced gene expression, high molecular weight poly(I:C) (MDA5 agonist) and low weight poly(I:C) (RIG-I agonist) were electroporated into human peripheral blood mononuclear cells (PBMCs) obtained from normal donors, or low molecular weight Poly(I:C) was electroporated into PBMCs from donors that have Systemic Lupus Erythematosus (SLE). Induction of IFN-α2, IFN-β, and BLyS mRNA production was monitored by qRT-PCR.
Human PBMCs were collected from healthy donors using routine laboratory procedures. PBMCs from SLE patients were purchased from Astarte Biologics (Redmond, Wash.). The PBMCs were electroporated using Nucleofector® Kit V (Lonza, Walkersville, Md.) with 0.4 ug/mL of high molecular weight poly (I:C) (InvivoGen, San Diego, Calif.) or 0.4 ug/mL low molecular weight poly (I:C) (InvivoGen, San Diego, Calif.) and seeded into wells containing serial dilutions of Example Compound 5 (0.1% final DMSO concentration). […] RNA was quantitated using Quant-iT™ RiboGreen® RNA Assay Kit (Invitrogen, Carlsbad, Calif.). Reverse transcription and real-time PCR were performed using the QuantiTect Probe RT-PCR Kit (Qiagen, Germantown, Md.) and the 7300 Real-Time PCR System (Applied Biosytems, Foster City, Calif.). […]

N#Cc1cc(-c2ccnc(Nc3ccc(N4CCOCC4)cc3)n2)ccc1OC1CCOCC1 [Example 5, 5-(2-{[4-(Morpholin-4-yl)phenyl]amino}pyrimidin-4-yl)-2-(tetrahydro-2H-pyran-4-yloxy)benzaonitrile]
IC50 [1]: < 10 nM | day symptoms were present in all mice ([2]; 100 mg/kg orally): ≤ 30 days | inhibition of AUC of clinical score as a function of time ([2]; 100 mg/kg orally): 29% | inhibition of body weight loss, day 18-34 ([2]; 100 mg/kg orally): 23% | reduction of magnitude of clinical score on day 34 ([2]; 100 mg/kg orally): 20% | day symptoms of arthritis appeared ([2]; 100 mg/kg orally each day): 23 days | day symptoms were present in all mice ([2]; 150 mg/kg orally): ≤ 30 days | inhibition of AUC of clinical score as a function of time ([2]; 150 mg/kg orally): 45% | inhibition of body weight loss, day 18-34 ([2]; 150 mg/kg orally): 42% | reduction of magnitude of clinical score on day 34 ([2]; 150 mg/kg orally): 38% | day symptoms of arthritis appeared ([2]; 150 mg/kg orally each day): 24 days | effect in reducing collagen-induced arthritis ([2]; 100 and 150 mg/kg orally): significant, dose-dependent effects | liver weights ([2]; any treatment (100 and 150 mg/kg), day 34): No differences | increases in erythema and swelling (cumulative clinical score) ([2]; both doses (100 and 150 mg/kg)): significantly slower | induction of BLyS mRNA [3]: potently inhibited
